These results are taken from US11613538B2, “Method of inhibiting or reducing a viral infection” (PTC Therapeutics, Inc., priority 2009, dated 2023).

For orientation: EC50 means the midpoint of the concentration-response curve. Low values mean higher potency in that assay, high ones lower potency in that assay.

Where only a bound is given, the exact number is not on record here.

In this assay the test system is hypoxia-induced VEGF production in HeLa cells. Briefly: cells. It is filed as cell-based, human. The conditions noted are these: Homo sapiens, HeLa.
For `O=C(Oc1ccccc1Cl)N1CCc2c([nH]c3cc(Br)ccc23)C1c1ccc(OC(F)F)cc1` (stereo not drawn) [Compound 1449], the EC50 is 200 to 1000 nM. The same measure for `O=C(Oc1ccc(Cl)cc1)N1CCc2c([nH]c3ccc(Cl)cc23)C1c1ccc(OCCCN2CC[C@@H](O)C2)cc1` (stereo partly drawn) [Compound 1476]: 40 to 200 nM; for `COc1ccc(C2c3[nH]c4ccc(Cl)cc4c3CCN2C(=O)C(=O)NC(C)C)cc1` (stereo not drawn) [Compound 1707]: 40 to 200 nM. The same measure for `C=CCOc1ccc([C@H]2c3[nH]c4ccc(Cl)cc4c3CCN2C(=O)OCC2CC2)cc1` [Compound 1365]: under 8 nM; for `Oc1ccc([C@H]2c3[nH]c4ccc(Cl)cc4c3CCN2c2ncccn2)cc1` [Compound 1241]: 8 to 40 nM. `CC(C)(C)COC(=O)N1CCc2c([nH]c3ccc(Cl)cc23)C1c1ccc(OCC[C@H](O)CO)cc1` (stereo partly drawn) [Compound 1177] returned an EC50 of under 8 nM.

Turning to `CC#CCOC(=O)N1CCc2c([nH]c3ccc(Cl)cc23)[C@@H]1c1ccc(OC2CCNCC2)cc1` [Compound 1683], the EC50 lay in the range of 8 to 40 nM. The same measure for `COc1ccc(C2c3[nH]c4cc(Cl)ccc4c3CCN2C(=O)Oc2ccc(Cl)cc2)cc1` (stereo not drawn) [Compound 1444]: 40 to 200 nM. The same measure for `CC(C)(C)COC(=O)N1CCc2c([nH]c3ccc(Cl)cc23)C1c1ccc(OCC2OCCO2)cc1` (stereo not drawn) [Compound 1038]: under 8 nM; for `O=C(OCC1CC1)N1CCc2c([nH]c3ccc(Cl)cc23)[C@@H]1c1ccc(O)cc1` [Compound 1369]: 8 to 40 nM. Consider `Clc1ccc2[nH]c3c(c2c1)CCN(c1ncccn1)[C@H]3c1ccc(OC[C@H]2CO2)cc1` [Compound 1246], for which the half-maximal effective concentration (EC50) is 8 to 40 nM. The value for `CCOC(=O)N1CCc2c([nH]c3ccc(Cl)cc23)C1c1cccc(OCCCN(CCOC)CCOC)c1` (stereo not drawn) [Compound 1118] was 200 to 1000 nM; that for `COc1ccc(C2c3[nH]c4ccc(Cl)cc4c3CCN2c2nc(-c3ccncc3)cs2)cc1` (stereo not drawn) [Compound 1594] was 40 to 200 nM. Consider `CC#CCOC(=O)N1CCc2c([nH]c3ccc(Cl)cc23)C1c1ccc(OCCn2cc(C#N)c(N)n2)cc1` (stereo not drawn) [Compound 1434], for which the 50% effective concentration (EC50) is under 8 nM. The same measure for `O=C(OCCF)N1CCc2c([nH]c3cc(Br)ccc23)C1c1ccc(OC(F)F)cc1` (stereo not drawn) [Compound 1448]: 200 to 1000 nM; for `CC#CCOC(=O)N1CCc2c([nH]c3cccc(Br)c23)C1c1ccc(OC)cc1` (stereo not drawn) [Compound 1523]: 40 to 200 nM; for `CN1CCN(C[C@H](O)COc2ccc([C@H]3c4[nH]c5ccc(Cl)cc5c4CCN3c3ncccn3)cc2)CC1` [Compound 1308]: under 8 nM. The same measure for `COc1ccc(C2c3[nH]c4ccc(C#N)cc4c3CCN2C(=S)Oc2ccc(F)cc2)cc1` (stereo not drawn) [Compound 1515]: 40 to 200 nM; for `C#CCOC(=O)N1CCc2c([nH]c3ccc(Cl)cc23)C1c1ccc(OCC2OCCO2)cc1` (stereo not drawn) [Compound 1048]: under 8 nM; for `C#CCOC(=O)N1CCc2c([nH]c3ccc(Cl)cc23)C1c1ccc(OCC(O)CO)cc1` (stereo not drawn) [Compound 1020]: 8 to 40 nM.

Molecule `CC#CCOC(=O)N1CCc2c([nH]c3ccc(Cl)cc23)[C@@H]1c1ccc(OC2CCN(S(=O)(=O)CC[Si](C)(C)C)CC2)cc1` [Compound 1606] showed a 50% effective concentration (EC50) of under 8 nM. The value for `CCOC(=O)N1CCc2c([nH]c3ccc(Br)cc23)C1c1ccc(OCC(CC)(CO)CO)cc1` (stereo not drawn) [Compound 1354] was under 8 nM; that for `CCOC(=O)CNC(=O)c1cccc(C2c3[nH]c4ccc(Cl)cc4c3CCN2C(=O)OCC)c1` (stereo not drawn) [Compound 1387] was 40 to 200 nM; that for `CCOC(=O)N1CCc2c([nH]c3ccc(Cl)cc23)[C@@H]1c1ccc(OCCC(O)Cn2nccn2)cc1` (stereo partly drawn) [Compound 1275] was under 8 nM. The value for `CCOC(=O)N1CCc2c([nH]c3ccc(Cl)cc23)[C@@H]1c1ccc(OCCCNCC2CCCO2)cc1` (stereo partly drawn) [Compound 1610] was 40 to 200 nM. `CCCOC(=O)NCC(O)COc1ccc(C2c3[nH]c4ccc(Cl)cc4c3CCN2C(=O)OCC)cc1` (stereo not drawn) [Compound 1471] gave a concentration for a half-maximal effect (EC50) of under 8 nM. The value for `COc1ccc(C2c3[nH]c4cccc(Cl)c4c3CCN2C(=O)Oc2ccc(Cl)cc2)cc1` (stereo not drawn) [Compound 1531] was 40 to 200 nM.

`COc1ccc(OC(=O)N2CCc3c([nH]c4ccc(S(C)(=O)=O)cc34)C2c2ccc(OC)cc2)cc1` (stereo not drawn) [Compound 1498] had an EC50 of over 1000 nM.

As to `CC#CCOC(=O)N1CCc2c([nH]c3ccc(Cl)cc23)[C@@H]1c1ccc(OC2CCN(C)CC2)cc1` [Compound 1684], the 50% effective concentration (EC50) lay within 8 to 40 nM.

`CCOC(=O)N1CCc2c([nH]c3ccc(Cl)cc23)C1c1ccc(OCC(O)CO)cc1` (stereo not drawn) [Compound 1000] had a half-maximal effective concentration (EC50) of 8 to 40 nM. The same measure for `CCCN(CCC)CCCOc1ccc([C@H]2c3[nH]c4ccc(Cl)cc4c3CCN2C(=O)OCC)cc1` [Compound 1233]: 8 to 40 nM; for `CCC(C)OC(=O)N1CCc2c([nH]c3ccc([S+](C)[O-])cc23)C1c1ccc(OC)cc1` (stereo not drawn) [Compound 1493]: over 1000 nM; for `COc1ccc(OC(=O)N2CCc3c([nH]c4ccc(Cl)cc34)C2c2ccc(OCCC3CCCN3C)cc2)cc1` (stereo not drawn) [Compound 1005]: 200 to 1000 nM. As to `COc1ccc(OC(=O)N2CCc3c([nH]c4ccc(Cl)cc34)C2c2ccc(OCCCN3CCOCC3)cc2)cc1` (stereo not drawn) [Compound 1030], the 50% effective concentration (EC50) was 8 to 40 nM.

`O=C(c1ccccc1)N1CCc2c([nH]c3ccc(Cl)cc23)C1c1ccc(OCCCN2CCOCC2)cc1` (stereo not drawn) [Compound 1140] came in with a concentration giving a half-maximal response (EC50) of 40 to 200 nM. The same measure for `COc1ccc(C2c3[nH]c4ccc([S+](C)[O-])cc4c3CCN2C(=O)Oc2ccc(Cl)cc2)cc1` (stereo not drawn) [Compound 1489]: over 1000 nM; for `CCN1CCN(C(=O)COc2ccc(C3c4[nH]c5ccc(Cl)cc5c4CCN3C(=O)Oc3ccc(F)cc3)cc2)CC1` (stereo not drawn) [Compound 1024]: 40 to 200 nM; for `O=C(c1ccc(Cl)cc1)N1CCc2c([nH]c3ccc(Cl)cc23)C1c1ccc(OCCCN2CCOCC2)cc1` (stereo not drawn) [Compound 1136]: 40 to 200 nM. The value for `CCN(CC)C[C@@H](O)CCOc1ccc([C@H]2c3[nH]c4ccc(Cl)cc4c3CCN2c2ncccn2)cc1` [Compound 1305] was 8 to 40 nM; that for `CC#CCOC(=O)N1CCc2c([nH]c3cccc(Cl)c23)C1c1ccc(OC)cc1` (stereo not drawn) [Compound 1530] was 40 to 200 nM; that for `COc1ccc(C2c3[nH]c4ccc(C#N)cc4c3CCN2C(=O)Oc2ccc(Cl)cc2)cc1` (stereo not drawn) [Compound 1513] was 40 to 200 nM. `COc1ccc(C2c3[nH]c4ccc(Cl)cc4c3CCN2C(=S)Oc2ccc(C)cc2)cn1` (stereo not drawn) [Compound 1477] showed an EC50 of 8 to 40 nM. The same measure for `Clc1ccc2[nH]c3c(c2c1)CCN(c1ncccn1)C3c1ccc(OCCCn2ccnn2)cc1` (stereo not drawn) [Compound 1200]: under 8 nM.

As to `CC#CCOC(=O)N1CCc2c([nH]c3ccc(Cl)cc23)[C@@H]1c1ccc(OC2CCN(CC[C@H](O)CO)CC2)cc1` [Compound 1705], the EC50 was in the range of 40 to 200 nM. In turn, `C=COC(=O)N1CCc2c([nH]c3ccc(Cl)cc23)C1c1ccc(OCC2OCCO2)cc1` (stereo not drawn) [Compound 1043] yielded an EC50 of under 8 nM. As to `COc1ccc(OC(=O)N2CCc3c([nH]c4ccc(Cl)cc34)C2c2ccc(OCCCN3CCOCC3)c(OC)c2)cc1` (stereo not drawn) [Compound 1131], the concentration for a half-maximal effect (EC50) is 8 to 40 nM. The same measure for `CCOC(=O)N1CCc2c([nH]c3ccc(Cl)cc23)C1c1ccc(OCCC2CCCN2C)cc1` (stereo not drawn) [Compound 1006]: 40 to 200 nM. The value for `C[Si](C)(C)CCS(=O)(=O)N1CCC(Oc2ccc(C3NCCc4c3[nH]c3ccc(Cl)cc43)cc2)CC1` (stereo not drawn) [Compound 1556] was 40 to 200 nM. `COc1ccc(C2c3[nH]c4ccc(Cl)cc4c3CCN2C(=N)SC2CCCC2=O)cc1` (stereo not drawn) [Compound 1593]: the EC50 lay within 40 to 200 nM. `O=C(Oc1ccc(Cl)cc1)N1CCc2c([nH]c3ccc(Cl)cc23)[C@@H]1c1ccc(OC2CCN(C[C@H](O)CO)CC2)cc1` [Compound 1704] came in with a half-maximal effective concentration (EC50) of 8 to 40 nM. Consider `COc1ccc(OC(=O)C(=O)N2CCc3c([nH]c4ccc(Cl)cc34)C2c2ccc(OC)cc2)cc1` (stereo not drawn) [Compound 1723], for which the EC50 is over 1000 nM. `CC1(C)OC[C@H](CCOc2ccc(C3c4[nH]c5ccc(Cl)cc5c4CCN3C(=O)Oc3ccc(Cl)cc3)cc2)O1` (stereo partly drawn) [Compound 1162] came in with a half-maximal effective concentration (EC50) of under 8 nM.

`Cc1ccc(OC(=O)N2CCc3c([nH]c4ccc(Cl)cc34)[C@@H]2c2ccc(OCCC(O)CN(CCO)CCO)cc2)cc1` (stereo partly drawn) [Compound 1288]: the EC50 lay in the range of 8 to 40 nM. Molecule `CCC(CO)(CO)COc1ccc(C2c3[nH]c4ccc(Br)cc4c3CCN2C(=O)OC(C)C)cc1` (stereo not drawn) [Compound 1355] came in with a concentration for a half-maximal effect (EC50) of under 8 nM. The same measure for `COc1ccc(C2c3[nH]c4ccc(Cl)cc4c3CCN2c2nc(-c3ccsc3)cs2)cc1` (stereo not drawn) [Compound 1595]: 8 to 40 nM; for `CCOC(=O)N1CCc2c([nH]c3ccc(S(C)(=O)=O)cc23)C1c1ccc(OC)cc1` (stereo not drawn) [Compound 1496]: over 1000 nM; for `O=C(Oc1ccc(Cl)cc1)N1CCc2c([nH]c3ccc(Cl)cc23)[C@@H]1c1ccc(OCCCN(CCO)CCO)cc1` [Compound 1258]: under 8 nM.

In turn, `O=C(Oc1ccc(Cl)cc1)N1CCc2c([nH]c3ccc(Cl)cc23)[C@@H]1c1ccc(OCCC(O)CN2CCOCC2)cc1` (stereo partly drawn) [Compound 1279] had an EC50 of under 8 nM. The same measure for `O=C(OCCCl)N1CCc2c([nH]c3ccc(Cl)cc23)C1c1ccc(OCC2OCCO2)cc1` (stereo not drawn) [Compound 1040]: 8 to 40 nM; for `CC(C)OC(=O)N1CCc2c([nH]c3ccc(Cl)cc23)C1c1ccc(OCCCN2CCN(C)CC2)cc1` (stereo not drawn) [Compound 1103]: 8 to 40 nM. Turning to `COc1ccc(C2c3[nH]c4ccc(Cl)cc4c3CCN2c2nc(C)c(C(=O)N(C)C)s2)cc1` (stereo not drawn) [Compound 1588], the concentration for a half-maximal effect (EC50) was in the range of 40 to 200 nM. The same measure for `C=CCOc1ccc([C@H]2c3[nH]c4ccc(Cl)cc4c3CCN2C(=O)OCC2CCCC2)cc1` [Compound 1609]: under 8 nM.

`COC(=O)N1CCc2c([nH]c3ccc(Cl)cc23)C1c1ccc(OCC2OCCO2)cc1` (stereo not drawn) [Compound 1032] had a half-maximal effective concentration (EC50) of 8 to 40 nM.

`O=C(OC1CCCC1)N1CCc2c([nH]c3ccc(Cl)cc23)[C@@H]1c1ccc(OC2CCOCC2)cc1` [Compound 1253] yielded an EC50 of under 8 nM. The same measure for `COc1ncc(C2NCCc3c2[nH]c2ccc(Cl)cc32)cn1` (stereo not drawn) [Compound 1688]: over 1000 nM. The same measure for `COc1ccc(OC(=O)N2CCc3c([nH]c4ccc([S+](C)[O-])cc34)C2c2ccc(OC)cc2)cc1` (stereo not drawn) [Compound 1490]: over 1000 nM.
